# Reference: patent US5441941A, “1,2-dihydroellipticines with activity against CNS specific cancer” (The United States of America as represented by the …, priority 1993, dated 1995)
# How the values were obtained:
# RPMI-8226 = test: cells; conditions: Homo sapiens
# DLD-1 = test: cells; conditions: Homo sapiens
# KM20L2 = test: cells; conditions: Homo sapiens
# 786-0 = test: cells; conditions: Homo sapiens
# Human tumor cell lines = test: NCI in vitro screen, overall result; conditions: Tables I and II
# CCRF-CEM = test: NCI in vitro screen, SRB percent growth, Leukemia
# M14 = test: NCI in vitro screen, SRB percent growth, Melanoma
# SK-MEL-2 = test: NCI in vitro screen, SRB percent growth, Melanoma
# SK-MEL-5 = test: NCI in vitro screen, SRB percent growth, Melanoma
# SNB-19 = test: NCI in vitro screen, SRB percent growth, CNS Cancer
# SNB-78 = test: as above
# COLO 205 = test: NCI in vitro screen, SRB percent growth, Colon Cancer
# HCT-116 = test: as above
# HT29 = test: as above
# RXF-631 = test: NCI in vitro screen, SRB percent growth, Renal Cancer
# UO-31 = test: as above
# OVCAR-8 = test: NCI in vitro screen, SRB percent growth, Ovarian Cancer
# CNS cancer cell lines = test: NCI in vitro screen, overall result on CNS cancer cell lines; conditions: Tables I and II
# [1] = RPMI-8226, read-out: Percent Growth
# [2] = DLD-1, read-out: Percent Growth
# [3] = KM-20L2, read-out: Percent Growth
# [4] = 786-0, read-out: Percent Growth
# [5] = Log10 Concentration -4.0, 100 µM
# [6] = Log10 Concentration -7.0, 0.1 µM
structure (smiles),measurement,setting,value
COc1ccc2[nH]c3c(C)c4c(c(C)c3c2c1)CN(C)C=C4 [Formula VII],GI50,RPMI-8226; RPMI-8226,6.31 µM
same,CC50,"RPMI-8226; RPMI-8226, read-out: LC-50",> 100 µM
same,activity at 0.01 µM,RPMI-8226; [1],104%
same,activity at 0.1 µM,RPMI-8226; [1],101%
same,activity at 1 µM,RPMI-8226; [1],99%
same,activity at 10 µM,RPMI-8226; [1],38%
same,activity at 100 µM,RPMI-8226; [1],-38%
same,IC (TGI),"RPMI-8226; RPMI-8226, read-out: TGI",31.5 µM
same,GI50,DLD-1; DLD-1,3.23 µM
same,CC50,"DLD-1; DLD-1, read-out: LC-50",> 100 µM
same,activity at 0.01 µM,DLD-1; [2],103%
same,activity at 0.1 µM,DLD-1; [2],99%
same,activity at 1 µM,DLD-1; [2],75%
same,activity at 10 µM,DLD-1; [2],26%
same,activity at 100 µM,DLD-1; [2],-15%
same,IC (TGI),"DLD-1; DLD-1, read-out: TGI",42.3 µM
same,GI50,KM20L2; KM-20L2,3.63 µM
same,CC50,"KM20L2; KM-20L2, read-out: LC-50",> 100 µM
same,activity at 0.01 µM,KM20L2; [3],106%
same,activity at 0.1 µM,KM20L2; [3],104%
same,activity at 1 µM,KM20L2; [3],82%
same,activity at 10 µM,KM20L2; [3],25%
same,activity at 100 µM,KM20L2; [3],-34%
same,IC (TGI),"KM20L2; KM-20L2, read-out: TGI",26.4 µM
same,GI50,786-0; 786-0,0.0408 µM
same,CC50,"786-0; 786-0, read-out: LC-50",66.7 µM
same,activity at 0.01 µM,786-0; [4],69%
same,activity at 0.1 µM,786-0; [4],38%
same,activity at 1 µM,786-0; [4],3%
same,activity at 10 µM,786-0; [4],-20%
same,activity at 100 µM,786-0; [4],-56%
same,IC (TGI),"786-0; 786-0, read-out: TGI",1.3 µM
same,effect against many kinds of cancer,Human tumor cell lines,effective against many kinds of cancer
same,Percent Growth,CCRF-CEM; [5],-10%
same,Percent Growth,CCRF-CEM; Log10 Concentration -5.0,29%
same,Percent Growth,"CCRF-CEM; Log10 Concentration -6.0, 1 µM",78%
same,Percent Growth,CCRF-CEM; [6],92%
same,TGI,CCRF-CEM; PG=0,54.5 µM
same,GI50,CCRF-CEM; PG=+50,3.65 µM
same,CC50,"CCRF-CEM; read-out: LC-50, PG=-50",> 100 µM
same,Percent Growth,M14; [5],-98%
same,Percent Growth,M14; Log10 Concentration -5.0,40%
same,Percent Growth,"M14; Log10 Concentration -6.0, 1 µM",103%
same,Percent Growth,M14; [6],111%
same,Percent Growth,M14; Log10 Concentration -8.0,99%
same,TGI,M14; PG=0,19.6 µM
same,GI50,M14; PG=+50,7.01 µM
same,CC50,"M14; read-out: LC-50, PG=-50",45.2 µM
same,Percent Growth,SK-MEL-2; [5],-91%
same,Percent Growth,SK-MEL-2; Log10 Concentration -5.0,-23%
same,Percent Growth,"SK-MEL-2; Log10 Concentration -6.0, 1 µM",110%
same,Percent Growth,SK-MEL-2; [6],137%
same,Percent Growth,SK-MEL-2; Log10 Concentration -8.0,125%
same,TGI,SK-MEL-2; PG=0,6.69 µM
same,GI50,SK-MEL-2; PG=+50,2.83 µM
same,CC50,"SK-MEL-2; read-out: LC-50, PG=-50",24.7 µM
same,Percent Growth,SK-MEL-5; [5],-53%
same,Percent Growth,SK-MEL-5; Log10 Concentration -5.0,-53%
same,Percent Growth,"SK-MEL-5; Log10 Concentration -6.0, 1 µM",75%
same,Percent Growth,SK-MEL-5; [6],94%
same,Percent Growth,SK-MEL-5; Log10 Concentration -8.0,99%
same,TGI,SK-MEL-5; PG=0,3.85 µM
same,GI50,SK-MEL-5; PG=+50,1.56 µM
same,CC50,"SK-MEL-5; read-out: LC-50, PG=-50",9.49 µM
same,Percent Growth,SNB-19; [5],1%
same,Percent Growth,SNB-19; Log10 Concentration -5.0,0%
same,Percent Growth,"SNB-19; Log10 Concentration -6.0, 1 µM",16%
same,Percent Growth,SNB-19; [6],84%
same,Percent Growth,SNB-19; Log10 Concentration -8.0,95%
same,TGI,SNB-19; PG=0,> 100 µM
same,GI50,SNB-19; PG=+50,0.318 µM
same,CC50,"SNB-19; read-out: LC-50, PG=-50",> 100 µM
same,Percent Growth,SNB-78; [5],-26%
same,Percent Growth,SNB-78; Log10 Concentration -5.0,-18%
same,Percent Growth,"SNB-78; Log10 Concentration -6.0, 1 µM",41%
same,Percent Growth,SNB-78; [6],98%
same,Percent Growth,SNB-78; Log10 Concentration -8.0,98%
same,TGI,SNB-78; PG=0,4.9 µM
same,GI50,SNB-78; PG=+50,0.683 µM
same,CC50,"SNB-78; read-out: LC-50, PG=-50",> 100 µM
same,Percent Growth,COLO 205; [5],-72%
same,Percent Growth,COLO 205; [6],91%
same,Percent Growth,COLO 205; Log10 Concentration -8.0,99%
same,TGI,COLO 205; PG=0,5.6 µM
same,GI50,COLO 205; PG=+50,1.42 µM
same,CC50,"COLO 205; read-out: LC-50, PG=-50",37.1 µM
same,Percent Growth,HCT-116; [5],-28%
same,Percent Growth,HCT-116; Log10 Concentration -5.0,29%
same,Percent Growth,"HCT-116; Log10 Concentration -6.0, 1 µM",80%
same,Percent Growth,HCT-116; [6],101%
same,Percent Growth,HCT-116; Log10 Concentration -8.0,106%
same,TGI,HCT-116; PG=0,32.2 µM
same,GI50,HCT-116; PG=+50,3.88 µM
same,CC50,"HCT-116; read-out: LC-50, PG=-50",> 100 µM
same,Percent Growth,HT29; [5],-73%
same,Percent Growth,HT29; Log10 Concentration -5.0,24%
same,Percent Growth,"HT29; Log10 Concentration -6.0, 1 µM",88%
same,Percent Growth,HT29; [6],112%
same,Percent Growth,HT29; Log10 Concentration -8.0,97%
same,TGI,HT29; PG=0,17.8 µM
same,GI50,HT29; PG=+50,3.92 µM
same,CC50,"HT29; read-out: LC-50, PG=-50",58 µM
same,Percent Growth,RXF-631; [5],-29%
same,Percent Growth,RXF-631; Log10 Concentration -5.0,18%
same,Percent Growth,"RXF-631; Log10 Concentration -6.0, 1 µM",38%
same,Percent Growth,RXF-631; [6],83%
same,Percent Growth,RXF-631; Log10 Concentration -8.0,106%
same,TGI,RXF-631; PG=0,24.3 µM
same,GI50,RXF-631; PG=+50,0.536 µM
same,CC50,"RXF-631; read-out: LC-50, PG=-50",> 100 µM
same,Percent Growth,UO-31; [5],10%
same,Percent Growth,UO-31; Log10 Concentration -5.0,83%
same,Percent Growth,"UO-31; Log10 Concentration -6.0, 1 µM",101%
same,Percent Growth,UO-31; [6],112%
same,Percent Growth,UO-31; Log10 Concentration -8.0,119%
same,TGI,UO-31; PG=0,> 100 µM
same,GI50,UO-31; PG=+50,28.4 µM
same,CC50,"UO-31; read-out: LC-50, PG=-50",> 100 µM
same,Percent Growth,OVCAR-8; [5],-17%
same,Percent Growth,OVCAR-8; Log10 Concentration -5.0,5%
same,Percent Growth,"OVCAR-8; Log10 Concentration -6.0, 1 µM",28%
same,Percent Growth,OVCAR-8; [6],67%
same,Percent Growth,OVCAR-8; Log10 Concentration -8.0,72%
same,TGI,OVCAR-8; PG=0,16.6 µM
same,GI50,OVCAR-8; PG=+50,0.274 µM
same,CC50,"OVCAR-8; read-out: LC-50, PG=-50",> 100 µM
same,effect against CNS cancer cell lines,CNS cancer cell lines,particularly effective against CNS cancer cell lines
